As a reminder, the pIC50 is the negative decadic logarithm of the IC50, by convention in mol/L.

pIC50: −log10 of the molar value.

Assay [1] deals with 32D (murine myeloid). The experiment in a line: MTT cytotoxicity assay. It counts as cell-based. The procedure:
The cytotoxicity of Peloruside A was tested in five cell lines:
32D (murine myeloid) generally in accordance with the MTT assay of Burres et al., J. Cancer Research (1989), 49, 2935-2940.
Briefly, cell lines were maintained in Dulbecco's modified Eagle's medium: F12 medium (50:50) (Gibco) supplemented with 10% fetal calf serum (Gibco), […] Penicillin G, and […] streptomycin sulfate. […] […] Data were analysed with the SYSTAT statistical program using a non-linear model fit, and IC50 values were calculated using a Logit-Log plot.
For orientation: Tetrazolium assays rely on reduction of a dye to a coloured formazan, in cell work by metabolically active cells.

The subject of assay [2] is different cell lines (H441, SY5Y, HL-60, 32D-ras, 32D, LLC-PK1). The experiment in a line: MTT cell proliferation assay in the different cell lines. It counts as cell-based. To be noted: 96 h; 4-day exposure. The protocol: Tumorigenic and non-tumorigenic cell lines were cultured as previously described in Hood K. A., West L. M., Northcote P. T., Berridge M. V., Miller J. H., Apoptosis (2001), 6, 207-219. These cell lines included HL-60 and KS62, two tumorigenic human myeloid leukemic cell lines, 32D clone 3 (32D), a non-tumorigenic murine myeloid cell line, 32D-ras, the ras-transformed derivative of 32D, H441, a human lung adenocarcinoma cell line, SH-SY5Y, a human neuroblastoma cell line, and LLC-PK1, a non-tumorigenic pig kidney cell line. IC50 values for Peloruside A in the different cell lines were determined using the tetrazolium-based MTT cell proliferation assay as previously described (Hood K. A et al.).

Assay [3] relates to H441 cells. The experiment in a line: cellular morphology, phase-contrast microscopy. It counts as cell-based, human. The procedure: Phase-contrast photomicrographs of H441 human lung adenocarcinoma cells: untreated control cells (A) and cells exposed for 48 h to 100 nM Peloruside A (B) or 100 nM paclitaxel (C). Note the intracellular fiber bundles in approximately 10% of the treated cells and the numerous micronuclei, each with a dark central spot of condensed DNA. Scale bar=[…].

Assay [4] has as its system K562 cells. The assay is described as follows: cellular morphology. The class given is cell-based, human. To be noted: K562, 2 days exposure, 100 nM.
Assay [5] has as its system purified tubulin. The experiment in a line: in vitro tubulin polymerization and electron microscopy. It counts as biochemical. Details: polymerization of purified tubulin in solution: dose or concentration left out as unconfirmed. The protocol:
Purified tubulin (approximately 7.5 mg protein) containing approximately 15% microtubule-associated proteins was obtained from Sigma and reconstituted in 0.1 M MES buffer, pH 6.8, 1 mM EGTA, 0.1 mM EDTA, 0.5 mM MgCl2, 1 mM DTT, 0.1 mM GTP, 1 mg/mL leupeptin, 1 mg/mL aprotinin, and 100 mg/mL sucrose as stabilizer. The reconstituted tubulin was incubated at 37° C. for 30 min in the presence of […] Peloruside A or […] paclitaxel. Samples […] were pipetted onto 400-mesh carbon- and Formvar-coated copper grids and left for 2 min at RT before blotting with filter paper. Each grid was stained with 5 mL of 1% uranyl acetate for 3 min at RT, then blotted with filter paper. Grids were air-dried overnight before examination in a Philips CM100 transmission electron microscope.
(B) Immunoblots following exposure to […] Peloruside A and […] paclitaxel for varying lengths of time. (C) Transmission electron micrograph of microtubules formed following treatment of purified soluble tubulin with […] Peloruside A for 30 min at 37° C. Scale bar (lower right)=500 nm.

Take `CCC(/C=C(/C)C1C[C@H](OC)C[C@@H](O)C(C)(C)[C@]2(O)OC(CC(OC)C2O)C[C@H](OC)[C@@H](O)C(=O)O1)CO` (stereo partly drawn) [Peloruside A]: the results for the LD50 in assay [1] (96 hours exposure) and in assay [1] (viability at 24 hours of exposure) were 0.0078 µM and 1600 µM, respectively. Besides, the negative-log IC50 (pIC50) in assay [2] was 7.82 to 8.40. Moreover, in assay [3] (H441, 48 h, 100 nM), the “treated cells with intracellular fiber bundles” value was “approximately 10%”. The micronuclei entry in assay [3] (H441, 2 days exposure, 100 nM) is listed as “multiple micronuclei were observed”; in assay [4], “multiple micronuclei were observed”. Also, the intracellular fiber bundles entry in assay [3] (H441, phase-contrast microscopy) is on record as “large intracellular fiber bundles were observed”. Further, the “polymerization of purified tubulin in solution” value in assay [5] (30 min, 37° C., electron microscopy) was “polymerize in solution into typical, long, straight microtubules”. Besides, the “stability of induced microtubules” value in assay [5] (at 0C) was “stable”.

The record behind these values is patent US6790862B2 (priority 1999, dated 2004).
